Patent publication US20210070735A1, “RIP1 INHIBITORY COMPOUNDS AND METHODS FOR MAKING AND USING THE SAME” (Rigel Pharmaceuticals, Inc., priority 2019, published 2021)

What was measured:
RIPK1 = target: T1, RIPK1 (Homo sapiens, UniProt Q13546); assay: RIPK1 ADP-Glo biochemical kinase assay; settings: 30 min at 30° C.
T1 sequence (Q13546 1-671): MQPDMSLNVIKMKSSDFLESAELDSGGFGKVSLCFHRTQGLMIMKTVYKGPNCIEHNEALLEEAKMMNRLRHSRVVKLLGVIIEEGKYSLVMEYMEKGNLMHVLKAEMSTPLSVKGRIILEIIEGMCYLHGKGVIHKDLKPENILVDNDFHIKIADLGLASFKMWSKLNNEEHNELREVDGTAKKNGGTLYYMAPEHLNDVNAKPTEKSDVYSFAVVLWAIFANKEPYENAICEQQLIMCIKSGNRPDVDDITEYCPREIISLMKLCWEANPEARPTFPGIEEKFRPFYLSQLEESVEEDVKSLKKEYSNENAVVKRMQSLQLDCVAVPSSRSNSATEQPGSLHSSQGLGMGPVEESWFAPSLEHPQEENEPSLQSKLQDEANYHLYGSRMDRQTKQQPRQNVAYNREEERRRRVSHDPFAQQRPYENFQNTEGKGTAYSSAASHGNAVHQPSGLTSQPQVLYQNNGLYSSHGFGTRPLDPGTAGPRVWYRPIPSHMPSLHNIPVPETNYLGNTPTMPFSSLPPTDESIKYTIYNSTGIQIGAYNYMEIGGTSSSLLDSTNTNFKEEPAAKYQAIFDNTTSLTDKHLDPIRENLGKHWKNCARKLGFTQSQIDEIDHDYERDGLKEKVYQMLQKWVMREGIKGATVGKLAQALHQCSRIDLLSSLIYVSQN
Protocol: The final reaction volume was 5.0 μl.
Adding 5 μl of ADP-Glo™ terminated the reaction.

murine RIP1 = target: T2, murine RIP1 (Mus musculus, UniProt Q60855); assay: L929 cell necroptosis assay (TNFa + zVAD, CellTiter-Glo); format: cell-based
T2 construct: U937 and L929 cells were obtained from the American Type Culture Collection; host or cells: L929
T2 sequence (Q60855 1-656): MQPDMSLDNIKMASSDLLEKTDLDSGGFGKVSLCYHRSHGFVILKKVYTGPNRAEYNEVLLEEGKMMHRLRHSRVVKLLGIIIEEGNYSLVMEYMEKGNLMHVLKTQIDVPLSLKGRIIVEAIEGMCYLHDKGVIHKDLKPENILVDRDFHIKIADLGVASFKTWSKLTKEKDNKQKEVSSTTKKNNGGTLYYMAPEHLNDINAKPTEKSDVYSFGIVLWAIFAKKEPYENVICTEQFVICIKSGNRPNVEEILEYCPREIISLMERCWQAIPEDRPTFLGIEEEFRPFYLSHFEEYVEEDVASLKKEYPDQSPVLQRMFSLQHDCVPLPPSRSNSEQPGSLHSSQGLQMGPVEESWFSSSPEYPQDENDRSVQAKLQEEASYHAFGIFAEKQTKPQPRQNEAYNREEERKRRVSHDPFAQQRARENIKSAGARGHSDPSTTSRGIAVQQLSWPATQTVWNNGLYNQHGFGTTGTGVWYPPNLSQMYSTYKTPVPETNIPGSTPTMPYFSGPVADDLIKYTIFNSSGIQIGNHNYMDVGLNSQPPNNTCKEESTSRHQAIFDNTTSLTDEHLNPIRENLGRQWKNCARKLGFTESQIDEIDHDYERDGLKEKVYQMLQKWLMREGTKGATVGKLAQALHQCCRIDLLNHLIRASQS
Protocol: (§1) In this example, U937 and L929 cells were exposed to compounds of the present disclosure and a cell necroptosis assay was conducted to evaluate the compounds' activity against human RIP1 and murine RIP1.
(§2) U937 and L929 cells were obtained from the American Type Culture Collection (Manassa, Va., USA). Both cells were maintained in logarithmic growth phase in complete RPMI 1640 media (Sigma, ST Louis, Mo., USA) supplemented with 10% fetal bovine serum (Sigma, ST Louis, Mo., USA) at 37° C. with 5% CO2. For necroptosis assay, L929 cells were plated for 18 h in 100 µL/well medium at 10K cells/well in Costar 96-well black clear-bottom plates (Fisher Scientific, Hampton, N.H., USA); U937 cells were plated on the day of the assay in 50 µL/well medium containing 60 uM zVAD-fmk (Lonza, Basel, Switzerland) at 50K cells/well. Medium from L929 cells were removed from the 96-well plates and replaced with 50 µL/well new medium containing 40 uM zVAD-fmk. Each compound of the present disclosure evaluated in this example was serially diluted in DMSO from 2.5 mM in 4-fold dilutions, and then diluted 1:125 in complete medium. 50 µL/well 2× of the compound was then added to the cells in the plates. The cells were pre-incubated with the compound for 1 hour at 37° C. with 5% CO2 and before addition of 10 µL/well 11×TNFa (Peprotech, Rocky Hill, N.J., USA) to give a final concentration of 2 ng/mL for TNFa. The relative amount of necroptosis cells was determined by luminescent using a Wallac Victor2 Luminometer (PerkinElmer, Waltham, Mass., USA) and a CellTiter-Glo® Luminescent Cell Viability Reagent Assay (Promega, Madison, Wis., USA) added per manufacturer instructions after 18 hours of TNFa stimulation at 37° C. with 5% CO2.Results from this example are summarized in Table 2. This example establishes that embodiments of the compounds described herein have unexpectedly potent activity against human RIP1 and murine RIP1, which allows their assessment in in vivo mouse models of disease.

human RIP1 = target: T3, human RIP1 (Homo sapiens, UniProt Q13546); assay: U937 cell necroptosis assay (TNFa + zVAD, CellTiter-Glo); format: cell-based; settings: U937 Zvad TNF CTG Recovery, U937 cells, TNFa 2 ng/mL + zVAD-fmk, 18 hours
T3 construct: U937 and L929 cells were obtained from the American Type Culture Collection; host or cells: U937
T3 sequence (Q13546 1-671): T1 sequence (Q13546 1-671)
Protocol: as §1, §2

Row | SMILES | IC50 (RIPK1) [nM] | IC50 (murine RIP1) [nM] | IC50 (human RIP1) [nM]
1 | CN1C(=O)[C@@H](NC(=O)c2n[nH]c(Cc3ccccc3)n2)CCc2ccc(C#CC(C)(C)C)cc21 [Compound I-21, (S)-5-Benzyl-N-(8-(3,3-dimethylbut-1-yn-1-yl)-1-methyl-2-oxo-2,3,4,5-tetrahydro-1H-benzo[b]azepin-3-yl)-1H-1,2,4-triazole-3-carboxamide] | 62.4 | 25.3 | 13.4
2 | CN1C(=O)[C@@H](NC(=O)c2cc(Oc3ccccc3)ccn2)CCc2ccc(C#CC3(O)COC3)cc21 [Compound I-22, (S)—N-(8-((3-hydroxyoxetan-3-yl)ethynyl)-1-methyl-2-oxo-2,3,4,5-tetrahydro-1H-benzo[b]azepin-3-yl)-4-phenoxypicolinamide] | 34.2 | 8.2 | 0.8
3 | CN1C(=O)[C@@H](NC(=O)c2ccn(Cc3ccccc3)n2)CCc2ccc(N3CC4(CCOCC4)C3)cc21 [Compound I-32, (S)-1-Benzyl-N-(1-methyl-2-oxo-8-(7-oxa-2-azaspiro[3.5]nonan-2-yl)-2,3,4,5-tetrahydro-1H-benzo[b]azepin-3-yl)-1H-pyrazole-3-carboxamide] | 38.8 | 182 | 2.7
4 | CN1C(=O)[C@@H](NC(=O)c2ccn(Cc3ccccc3)n2)CCc2ccc(C#CC(C)(C)C)cc21 [Compound I-33, (S)-1-Benzyl-N-(8-(3,3-dimethylbut-1-yn-1-yl)-1-methyl-2-oxo-2,3,4,5-tetrahydro-1H-benzo[b]azepin-3-yl)-1H-pyrazole-3-carboxamide] | 54.6 | 30 | 7.6
5 | CC(C)(O)C#Cc1ccc2c(c1)NC(=O)[C@@H](NC(=O)c1cc(Oc3ccc(F)cc3)ccn1)CC2 [Compound I-35, (S)-4-(4-Fluorophenoxy)-N-(8-(3-hydroxy-3-methylbut-1-yn-1-yl)-2-oxo-2,3,4,5-tetrahydro-1H-benzo[b]azepin-3-yl)picolinamide] | 73 | 1790 | 552
6 | [2H]C([2H])([2H])N1C(=O)[C@@H](NC(=O)n2cc(Cc3ccc(F)cc3)cn2)CCc2ccc(C#CC(C)(C)O)cc21 [Compound I-36, 4-(4-Fluorobenzyl)-N-(8-(3-hydroxy-3-methylbut-1-yn-1-yl)-1-(methyl-d)-2-oxo-2,3,4,5-tetrahydro-1H-benzo[b]azepin-3-yl)-1H-pyrazole-1-carboxamide] | 39.2 | 4.5 | 0.5

Now from value to molecule, other results behind:

Row | IC50 (RIPK1) [nM] | SMILES | IC50 (murine RIP1) [nM] | IC50 (human RIP1) [nM]
7 | 23.4 | CN1C(=O)[C@@H](NC(=O)c2n[nH]c(Cc3ccccc3)n2)CCc2ccc(C#Cc3cccnc3)cc21 [Compound I-18, (S)-5-Benzyl-N-(1-methyl-2-oxo-8-(pyridin-3-ylethynyl)-2,3,4,5-tetrahydro-1H-benzo[b]azepin-3-yl)-1H-1,2,4-triazole-3-carboxamide] | 5.9 | 3.2
8 | 26 | CN1C(=O)[C@@H](NC(=O)n2cc(Cc3ccc(F)cc3)cn2)CCc2ccc(C#CC3(O)CCOCC3)cc21 [Compound I-34, (S)-4-(4-Fluorobenzyl)-N-(8-((4-hydroxytetrahydro-2H-pyran-4-yl)ethynyl)-1-methyl-2-oxo-2,3,4,5-tetrahydro-1H-benzo[b]azepin-3-yl)-1H-pyrazole-1-carboxamide] | 5.9 | 0.4
9 | 12.7 | CN1CCN(C(C)(C)C#Cc2ccc3c(c2)N(C)C(=O)[C@@H](NC(=O)c2cc(Oc4ccccc4)ccn2)CC3)CC1 [Compound I-37, (S)—N-(1-Methyl-8-(3-methyl-3-(4-methylpiperazin-1-yl)but-1-yn-1-yl)-2-oxo-2,3,4,5-tetrahydro-1H-benzo[b]azepin-3-yl)-4-phenoxypicolinamide] | 1940 | 21
